# Data: paper PMC5218480 (PLoS ONE, 2017)
# Test system: MV-4-11 cells
# Test: Gene expression microarray analysis (Affymetrix PrimeView) and GSEA
# Format: cell-based, human
# Set-up: RFU PODN (11730768_x_at) / Fold change /veh PODN (11730768_x_at) / RFU LINC00158 (11744669_a_at) / Fold change /veh LINC00158 (11744669_a_at) / RFU DUSP10 (11751237_a_at) / Fold change /veh DUSP10 (11751237_a_at) / RFU ID3 (11757404_x_at) / Fold change /veh ID3 (11757404_x_at) / RFU PLEKHG5 (11737974_s_at) / Fold change /veh PLEKHG5 (11737974_s_at) / RFU LRRC4B (11730491_at) / Fold change /veh LRRC4B (11730491_at) / RFU GIMAP4 (11747438_a_at) / Fold change /veh GIMAP4 (11747438_a_at) / RFU KRT8 (11758183_x_at) / Fold change /veh KRT8 (11758183_x_at) / RFU CNN1 (11734310_a_at) / Fold change /veh CNN1 (11734310_a_at) / RFU VPS37D (11726825_at) / Fold change /veh VPS37D (11726825_at) / RFU C10orf10 (11716522_x_at) / Fold change /veh C10orf10 (11716522_x_at) / RFU KIR2DL2 /// KIR2DL4 /// KIR2DL5A /// KIR2DL5B /// KIR2DS1 /// KIR2DS2 /// KIR2DS3 /// KIR2DS4 /// KIR3DL3 /// KIR3DL3 /// KIR3DS1 (11738374_at) / Fold change /veh KIR2DL2 /// KIR2DL4 /// KIR2DL5A /// KIR2DL5B /// KIR2DS1 /// KIR2DS2 /// KIR2DS3 /// KIR2DS4 /// KIR3DL3 /// KIR3DL3 /// KIR3DS1 (11738374_at) / RFU C1QL1 (11718748_at) / Fold change /veh C1QL1 (11718748_at) / RFU TMPRSS4 (11747572_a_at) / Fold change /veh TMPRSS4 (11747572_a_at) / RFU HAMP (11756126_x_at) / Fold change /veh HAMP (11756126_x_at) / RFU RNFT2 (11725882_a_at) / Fold change /veh RNFT2 (11725882_a_at) / RFU NR4A2 (11747474_a_at) / Fold change /veh NR4A2 (11747474_a_at) / RFU ABCC12 (11746883_a_at) / Fold change /veh ABCC12 (11746883_a_at) / RFU TMEM136 (11760407_x_at) / Fold change /veh TMEM136 (11760407_x_at) / RFU CLDN22 /// WWC2 (11732394_at) / Fold change /veh CLDN22 /// WWC2 (11732394_at) / RFU HLA-DPB1 (11760878_x_at) / Fold change /veh HLA-DPB1 (11760878_x_at) / RFU SPINT1 (11716480_a_at) / Fold change /veh SPINT1 (11716480_a_at) / RFU GAP43 (11754022_s_at) / Fold change /veh GAP43 (11754022_s_at) / RFU A4GNT (11735810_at) / Fold change /veh A4GNT (11735810_at) / RFU PRB3 (11715151_x_at) / Fold change /veh PRB3 (11715151_x_at) / RFU TUBB4B (11761932_at) / Fold change /veh TUBB4B (11761932_at) / RFU CAPN14 (11732068_a_at) / Fold change /veh CAPN14 (11732068_a_at) / RFU TMCC2 (11721928_a_at) / Fold change /veh TMCC2 (11721928_a_at) / RFU IRGQ (11745062_a_at) / Fold change /veh IRGQ (11745062_a_at) / RFU FAM174B (11720279_a_at) / Fold change /veh FAM174B (11720279_a_at) / RFU TMPRSS4 (11748680_a_at) / Fold change /veh TMPRSS4 (11748680_a_at) / RFU FAM212B (11763350_a_at) / Fold change /veh FAM212B (11763350_a_at) / RFU PLEKHG5 (11743358_a_at) / Fold change /veh PLEKHG5 (11743358_a_at) / RFU ZSCAN30 (11745921_a_at) / Fold change /veh ZSCAN30 (11745921_a_at) / RFU CMKLR1 (11741424_a_at) / Fold change /veh CMKLR1 (11741424_a_at) / RFU LOC101060620 /// MAPK8IP1 (11723275_at) / Fold change /veh LOC101060620 /// MAPK8IP1 (11723275_at) / RFU SPTSSB (11747773_x_at) / Fold change /veh SPTSSB (11747773_x_at) / RFU PRSS12 (11739890_at) / Fold change /veh PRSS12 (11739890_at) / RFU BIN1 (11741810_x_at) / Fold change /veh BIN1 (11741810_x_at) / RFU WNT11 (11732464_a_at) / Fold change /veh WNT11 (11732464_a_at) / RFU C10orf10 (11716521_a_at) / Fold change /veh C10orf10 (11716521_a_at) / RFU C5orf56 (11738089_at) / Fold change /veh C5orf56 (11738089_at) / RFU CYB561 (11721691_x_at) / Fold change /veh CYB561 (11721691_x_at) / RFU ANKRD19P (11752326_a_at) / Fold change /veh ANKRD19P (11752326_a_at) / RFU OR2T12 /// OR2T33 /// OR2T8 (11738714_s_at) / Fold change /veh OR2T12 /// OR2T33 /// OR2T8 (11738714_s_at) / RFU VCAN (11748164_a_at) / Fold change /veh VCAN (11748164_a_at) / RFU JSRP1 (11732532_at) / Fold change /veh JSRP1 (11732532_at) / RFU KRTAP10-11 (11738290_x_at) / Fold change /veh KRTAP10-11 (11738290_x_at) / RFU MYO3A (11730013_a_at) / Fold change /veh MYO3A (11730013_a_at) / RFU EBF3 (11725865_a_at) / Fold change /veh EBF3 (11725865_a_at) / RFU CAMK2N1 (11719241_x_at) / Fold change /veh CAMK2N1 (11719241_x_at) / RFU C5orf56 (11738088_a_at) / Fold change /veh C5orf56 (11738088_a_at) / RFU OLFML3 (11715873_a_at) / Fold change /veh OLFML3 (11715873_a_at) / RFU LOC100653217 /// NTM (11731650_a_at) / Fold change /veh LOC100653217 /// NTM (11731650_a_at) / RFU MAPK11 (11762145_a_at) / Fold change /veh MAPK11 (11762145_a_at) / RFU FIZ1 (11724087_x_at) / Fold change /veh FIZ1 (11724087_x_at) / RFU OASL (11726364_x_at) / Fold change /veh OASL (11726364_x_at) / RFU SOX15 (11748057_x_at) / Fold change /veh SOX15 (11748057_x_at) / RFU CD79A (11719716_a_at) / Fold change /veh CD79A (11719716_a_at) / RFU HIST1H1D (11736915_at) / Fold change /veh HIST1H1D (11736915_at) / RFU CASKIN2 (11723855_a_at) / Fold change /veh CASKIN2 (11723855_a_at) / RFU LOC730098 (11760151_x_at) / Fold change /veh LOC730098 (11760151_x_at) / RFU OR4N2 (11742367_at) / Fold change /veh OR4N2 (11742367_at) / RFU PRRT2 (11749266_a_at) / Fold change /veh PRRT2 (11749266_a_at) / RFU SNX32 (11753110_a_at) / Fold change /veh SNX32 (11753110_a_at) / RFU CDHR5 (11726645_a_at) / Fold change /veh CDHR5 (11726645_a_at) / RFU RCAN1 (11760418_a_at) / Fold change /veh RCAN1 (11760418_a_at) / RFU FAM167A (11723789_a_at) / Fold change /veh FAM167A (11723789_a_at) / RFU FAM26E (11764081_at) / Fold change /veh FAM26E (11764081_at) / RFU ISYNA1 (11749810_s_at) / Fold change /veh ISYNA1 (11749810_s_at) / RFU ACY1 (11761880_at) / Fold change /veh ACY1 (11761880_at) / RFU 11764098_at / Fold change /veh 11764098_at / RFU SAMD14 (11745864_x_at) / Fold change /veh SAMD14 (11745864_x_at) / RFU NPB (11741838_a_at) / Fold change /veh NPB (11741838_a_at) / RFU TMPRSS6 (11731388_a_at) / Fold change /veh TMPRSS6 (11731388_a_at) / RFU KRTAP10-2 (11738614_at) / Fold change /veh KRTAP10-2 (11738614_at) / RFU ARHGAP8 /// PRR5-ARHGAP8 (11727945_x_at) / Fold change /veh ARHGAP8 /// PRR5-ARHGAP8 (11727945_x_at) / RFU KRTAP5-7 /// NADSYN1 (11734609_at) / Fold change /veh KRTAP5-7 /// NADSYN1 (11734609_at) / RFU RASL12 (11751679_a_at) / Fold change /veh RASL12 (11751679_a_at) / RFU CDKN2B (11736163_a_at) / Fold change /veh CDKN2B (11736163_a_at) / RFU PRF1 (11729649_at) / Fold change /veh PRF1 (11729649_at) / RFU, ZNF638 /// ZNF638-IT1 / Fold change vs veh, ZNF638 /// ZNF638-IT1 / RFU, PANK3 / Fold change vs veh, PANK3 / RFU, SH3YL1 / Fold change vs veh, SH3YL1 / RFU, ZEB2 / Fold change vs veh, ZEB2 / RFU, NRIP1 / Fold change vs veh, NRIP1 / RFU, PTTG1IP / Fold change vs veh, PTTG1IP / RFU, CAPN2 / Fold change vs veh, CAPN2 / RFU, MED14 / Fold change vs veh, MED14 / RFU, SNORA58 / Fold change vs veh, SNORA58 / RFU, C1orf63 / Fold change vs veh, C1orf63 / RFU, LRRFIP1 / Fold change vs veh, LRRFIP1 / RFU, NDUFAF7 / Fold change vs veh, NDUFAF7 / RFU, SLC12A2 / Fold change vs veh, SLC12A2 / RFU, IBTK / Fold change vs veh, IBTK / RFU, ESF1 / Fold change vs veh, ESF1 / Fold change vs veh, TMEM50B / RFU, TAOK1 / Fold change vs veh, TAOK1 / RFU, ACBD3 / Fold change vs veh, ACBD3 / RFU, TMA16 / Fold change vs veh, TMA16 / RFU, RWDD3 / Fold change vs veh, RWDD3 / RFU, BCAT1 / Fold change vs veh, BCAT1 / RFU, EDEM3 / Fold change vs veh, EDEM3 / RFU, TMEM33 / Fold change vs veh, TMEM33 / RFU, WDR75 / Fold change vs veh, WDR75 / RFU, AHCTF1 / Fold change vs veh, AHCTF1 / RFU, TFRC / Fold change vs veh, TFRC / RFU, ZDHHC17 / Fold change vs veh, ZDHHC17 / RFU, NOM1 / Fold change vs veh, NOM1 / RFU, ARL8B / Fold change vs veh, ARL8B / RFU, ZBTB11 / Fold change vs veh, ZBTB11 / RFU, TAMM41 / Fold change vs veh, TAMM41 / RFU, KIAA1704 /// LOC100996395 / Fold change vs veh, KIAA1704 /// LOC100996395 / RFU, ING1 / Fold change vs veh, ING1 / RFU, TRMT61B / Fold change vs veh, TRMT61B / RFU, FUBP3 / Fold change vs veh, FUBP3 / RFU, TP53 / Fold change vs veh, TP53 / RFU, TNKS2 / Fold change vs veh, TNKS2 / RFU, ZFP14 / Fold change vs veh, ZFP14 / RFU, ACTR2 / Fold change vs veh, ACTR2 / RFU, PPP3R1 / Fold change vs veh, PPP3R1 / RFU, PIK3R1 / Fold change vs veh, PIK3R1 / RFU, HNRNPA1 / Fold change vs veh, HNRNPA1 / RFU, RNF170 / Fold change vs veh, RNF170 / RFU, ZNF28 / Fold change vs veh, ZNF28 / RFU, RNGTT / Fold change vs veh, RNGTT / RFU, OGT / Fold change vs veh, OGT / RFU, BRD1 / Fold change vs veh, BRD1 / RFU, MARS / Fold change vs veh, MARS / RFU, ZNF655 / Fold change vs veh, ZNF655 / RFU, FAHD1 / Fold change vs veh, FAHD1 / RFU, BDP1 / Fold change vs veh, BDP1 / RFU, LRRCC1 / Fold change vs veh, LRRCC1 / RFU, ARID1A / Fold change vs veh, ARID1A / RFU, ZNF146 / Fold change vs veh, ZNF146 / RFU, ZNF330 / Fold change vs veh, ZNF330 / RFU, GPN3 / Fold change vs veh, GPN3 / RFU, C9orf123 / Fold change vs veh, C9orf123 / RFU, N4BP2L2 / Fold change vs veh, N4BP2L2 / RFU, ARFIP1 / Fold change vs veh, ARFIP1 / RFU, FAM179B / Fold change vs veh, FAM179B / RFU, BCL10 / Fold change vs veh, BCL10 / RFU, UHRF1BP1L / Fold change vs veh, UHRF1BP1L / RFU, BET1 / Fold change vs veh, BET1 / RFU, CNOT2 / Fold change vs veh, CNOT2 / RFU, ZNF268 / Fold change vs veh, ZNF268 / Fold change vs veh, ZNF507 / RFU, DGCR2 / Fold change vs veh, DGCR2 / RFU, WDSUB1 / Fold change vs veh, WDSUB1 / Fold change vs veh, HSP90B1 /// MIR3652 / RFU, ADSS / Fold change vs veh, ADSS / RFU, GK / Fold change vs veh, GK / RFU, ZNF148 / Fold change vs veh, ZNF148 / RFU, TAF9 / Fold change vs veh, TAF9 / RFU, SLC1A5 / Fold change vs veh, SLC1A5 / RFU, SLMO2 / Fold change vs veh, SLMO2 / RFU, ABCC4 / Fold change vs veh, ABCC4 / RFU, LOC101060439 /// RAP1B / Fold change vs veh, LOC101060439 /// RAP1B / RFU, RFX7 / Fold change vs veh, RFX7 / RFU, GTPBP10 / Fold change vs veh, GTPBP10 / RFU, CNEP1R1 / Fold change vs veh, CNEP1R1 / RFU, BIVM-ERCC5 /// ERCC5 / Fold change vs veh, BIVM-ERCC5 /// ERCC5 / RFU, ILF3 / Fold change vs veh, ILF3 / RFU 11762660_at / Fold change /veh 11762660_at / RFU VCAN (11757783_s_at) / Fold change /veh VCAN (11757783_s_at) / RFU DDX43 (11728927_at) / Fold change /veh DDX43 (11728927_at) / RFU KRT8 (11758188_x_at) / Fold change /veh KRT8 (11758188_x_at) / RFU NKD1 (11759106_at) / Fold change /veh NKD1 (11759106_at) / RFU SRD5A1 (11742802_a_at) / Fold change /veh SRD5A1 (11742802_a_at) / RFU TPSAB1 /// TPSB2 (11721975_s_at) / Fold change /veh TPSAB1 /// TPSB2 (11721975_s_at) / RFU GSTM3 (11746129_a_at) / Fold change /veh GSTM3 (11746129_a_at) / RFU IL23R (11737362_x_at) / Fold change /veh IL23R (11737362_x_at) / RFU TMEM51 (11727254_a_at) / Fold change /veh TMEM51 (11727254_a_at) / RFU PIWIL2 (11732686_x_at) / Fold change /veh PIWIL2 (11732686_x_at) / RFU ORM1 (11744905_x_at) / Fold change /veh ORM1 (11744905_x_at) / RFU CCDC152 (11743942_at) / Fold change /veh CCDC152 (11743942_at) / RFU ECM1 (11717891_a_at) / Fold change /veh ECM1 (11717891_a_at) / RFU IL23R (11748794_a_at) / Fold change /veh IL23R (11748794_a_at) / RFU TNFAIP8L3 (11732012_x_at) / Fold change /veh TNFAIP8L3 (11732012_x_at) / RFU MBOAT4 (11741988_at) / Fold change /veh MBOAT4 (11741988_at) / RFU 11764193_at / Fold change /veh 11764193_at / RFU TMEM53 (11763286_at) / Fold change /veh TMEM53 (11763286_at) / RFU MAGEB2 (11727129_at) / Fold change /veh MAGEB2 (11727129_at) / RFU TMEM200A (11744735_a_at) / Fold change /veh TMEM200A (11744735_a_at) / RFU CCDC152 (11751479_a_at) / Fold change /veh CCDC152 (11751479_a_at) / RFU FAM211A (11726209_a_at) / Fold change /veh FAM211A (11726209_a_at) / RFU RGS16 (11746705_a_at) / Fold change /veh RGS16 (11746705_a_at) / RFU VCAN (11755009_s_at) / Fold change /veh VCAN (11755009_s_at) / RFU RHOB (11743442_s_at) / Fold change /veh RHOB (11743442_s_at) / RFU RGS16 (11720943_a_at) / Fold change /veh RGS16 (11720943_a_at) / RFU RGS16 (11720944_at) / Fold change /veh RGS16 (11720944_at) / RFU, VPS4B / Fold change vs veh, VPS4B / RFU, CREB1 / Fold change vs veh, CREB1 / RFU, DNAJC13 / Fold change vs veh, DNAJC13 / RFU, GNAQ / Fold change vs veh, GNAQ / RFU, CDK5R1 / Fold change vs veh, CDK5R1 / RFU, ZRANB3 / Fold change vs veh, ZRANB3 / RFU, CUL4A / Fold change vs veh, CUL4A / RFU, CCNY / Fold change vs veh, CCNY / RFU, UFL1 / Fold change vs veh, UFL1 / RFU, COG3 / Fold change vs veh, COG3 / RFU, DIAPH2 / Fold change vs veh, DIAPH2 / RFU, SKA2 / Fold change vs veh, SKA2 / RFU, AFF3 / Fold change vs veh, AFF3 / RFU, LMF1 / Fold change vs veh, LMF1 / RFU, IPO11 / Fold change vs veh, IPO11 / RFU, DFFB / Fold change vs veh, DFFB / RFU, FOXP1 / Fold change vs veh, FOXP1 / RFU, CARD8 / Fold change vs veh, CARD8 / RFU, STRN3 / Fold change vs veh, STRN3 / RFU, ADK / Fold change vs veh, ADK / RFU, RASSF2 / Fold change vs veh, RASSF2 / RFU, WIPF1 / Fold change vs veh, WIPF1 / RFU, LARP1B / Fold change vs veh, LARP1B / RFU, RASA1 / Fold change vs veh, RASA1 / RFU, RB1 / Fold change vs veh, RB1 / RFU, PPFIA1 / Fold change vs veh, PPFIA1 / RFU, MAT2A / Fold change vs veh, MAT2A / RFU, CCT5 / Fold change vs veh, CCT5 / RFU, WDR92 / Fold change vs veh, WDR92 / RFU, CUX1 / Fold change vs veh, CUX1 / RFU, TTC7A / Fold change vs veh, TTC7A / RFU, TMEM135 / Fold change vs veh, TMEM135 / RFU, DEPTOR / Fold change vs veh, DEPTOR / RFU, CPM / Fold change vs veh, CPM / RFU, DNAJB6 / Fold change vs veh, DNAJB6 / RFU, CACNA2D3 / Fold change vs veh, CACNA2D3 / RFU, DTX4 / Fold change vs veh, DTX4 / RFU, TFCP2 / Fold change vs veh, TFCP2 / RFU, GMCL1 /// GMCL1P1 / Fold change vs veh, GMCL1 /// GMCL1P1 / RFU, AEBP2 / Fold change vs veh, AEBP2 / RFU, SNHG1 /// SNORD22 /// SNORD25 /// SNORD26 /// SNORD27 /// SNORD28 /// SNORD29 /// SNORD31 / Fold change vs veh, SNHG1 /// SNORD22 /// SNORD25 /// SNORD26 /// SNORD27 /// SNORD28 /// SNORD29 /// SNORD31 / Fold change (Aza/veh), C12orf56 (ProbeSet 11735607_a_at) / Fold change (ACY-1035/veh), C12orf56 (ProbeSet 11735607_a_at) / Fold change (Aza/veh), FGFR1OP (ProbeSet 11751329_s_at) / Fold change (ACY-1035/veh), FGFR1OP (ProbeSet 11751329_s_at) / Fold change (Aza/veh), VPS36 (ProbeSet 11739960_a_at) / Fold change (ACY-1035/veh), VPS36 (ProbeSet 11739960_a_at) / RFU SYPL1 (11715823_x_at) / Fold change /veh SYPL1 (11715823_x_at) / RFU IGFBP7 (11715501_s_at) / Fold change /veh IGFBP7 (11715501_s_at) / RFU REEP3 (11722064_at) / Fold change /veh REEP3 (11722064_at) / RFU IGLL1 (11728026_x_at) / Fold change /veh IGLL1 (11728026_x_at): dose or concentration left out as unconfirmed
# Details: MV-4-11 cells, 48 hours
smiles,measurement,value
Nc1ncn([C@@H]2O[C@H](CO)[C@@H](O)[C@H]2O)c(=O)n1 [azacitidine],RFU ID3 (11757404_x_at),51.53 RFU
